In brackets after ≈: the same amount, converted by molar mass. Like-named read-outs stand apart in the source and are kept apart here.
Key:
Staphylococcus aureus [1] = conditions: Staphylococcus aureus 342U-116
Pseudomonas aeruginosa = assay: microbe, parasite or virus in culture
E. coli = E. coli 4104 LF
Serratia marcescens = assay: microbe, parasite or virus in culture; format: cell-based; conditions: Serratia marcescens 13880; read-out: Minimum Inhibitory Concentrations
Method: (§1) Acne vulgaris may involve a microbial consortium. Although P. acnes may be a prominent member of such a consortium, other uncharacterized bacteria may also participate. The microbial activity of XMP.629 as an acetate gel as described in Example 5 and other commonly used antibiotics was evaluated against a panel of human pathogens using standardized NCCLS protocols. […] Lesser potency was observed against the gram-negative organisms B. fragilis, B. cepacia, P. mirabilis and S. marcescens, which are often refractory to many antimicrobial compounds.

Klebsiella pneumoniae = assay: microbe, parasite or virus in culture; format: cell-based; conditions: Klebsiella pneumoniae, read-out: Minimum Inhibitory Concentrations
Method: as §1

Bacteroides fragilis = assay: microbe, parasite or virus in culture; format: cell-based; conditions: Bacteroides fragilis 25285; read-out: Minimum Inhibitory Concentrations
Method: as §1

Proteus mirabilis = assay: microbe, parasite or virus in culture; format: cell-based; conditions: Proteus mirabilis 29852; read-out: Minimum Inhibitory Concentrations
Method: as §1

Escherichia coli = assay: microbe, parasite or virus in culture; format: cell-based; conditions: Escherichia coli, read-out: Minimum Inhibitory Concentrations
Method: as §1

Streptococcus sobrinus = assay: microbe, parasite or virus in culture; conditions: read-out: Minimum Inhibitory Concentrations
Streptococcus mutans = assay: MIC, panel of human pathogens, standardized NCCLS protocols; format: cell-based; conditions: read-out: Minimum Inhibitory Concentrations
Enterococcus hirae = assay: microbe, parasite or virus in culture; conditions: read-out: Minimum Inhibitory Concentrations
Macrococcus caseolyticus = assay: microbe, parasite or virus in culture; conditions: Macrococcoides caseolyticum, read-out: Minimum Inhibitory Concentrations
Prevotella intermedia = assay: microbe, parasite or virus in culture; format: cell-based; conditions: Prevotella intermedia 25261; read-out: Minimum Inhibitory Concentrations
Method: as §1

Salmonella ryphimurium = assay: microbe, parasite or virus in culture; format: cell-based; conditions: Salmonella ryphimurium SL770; read-out: Minimum Inhibitory Concentrations
Method: as §1

Porphyromonas gingivalis = assay: microbe, parasite or virus in culture; format: cell-based; conditions: Porphyromonas gingivalis 33277; read-out: Minimum Inhibitory Concentrations
Method: as §1

Burkholderia cepacia = assay: microbe, parasite or virus in culture; format: cell-based; conditions: Burkholderia cepacia 25416; read-out: Minimum Inhibitory Concentrations
Method: as §1

[2] = test system: Actinobacillus actinomycetemcomitans; assay: microbe, parasite or virus in culture; format: cell-based; conditions: Aggregatibacter actinomycetemcomitans; Actinobacillus actinomycetemcomitans 43718; read-out: Minimum Inhibitory Concentrations
Method: as §1

[3] = test system: Enterococcus faccium (VRE); assay: microbe, parasite or virus in culture; conditions: read-out: Minimum Inhibitory Concentrations
Streptococcus pneumoniae = assay: microbe, parasite or virus in culture; conditions: read-out: Minimum Inhibitory Concentrations
S. aureus = assay: Comparison of XMP.629 with standard topical agents (MIC90/MBC); format: cell-based, Staphylococcus aureus; conditions: Staphylococcus aureus
Method: (§2) Control tubes containing only water or formulation buffer were prepared for each isolate. Initial growth controls were determined by removing 10 μL from the water control tube and diluting it by 100 fold. From this dilution, 10 μL was used for inoculation and for spreading over the surface onto Laked Blood Agar (LBA) (Anaerobe Systems, Morgan Hill, Calif.) plates. The tubes and plates were incubated in an anaerobic atmosphere at 37° C. for 48 h. […] MBC50 and 90 values represent where 50 and 90%, respectively, of the tested strain's MBC values are equal to or less than the indicated concentration.

P. acnes [4] = conditions: strains UPC686 and UP2022; with XMP.629
[5] = test system: P. acnes strain (ATCC 6919); assay: microbe, parasite or virus in culture; conditions: Cutibacterium acnes, ATCC6919, read-out: MIC for matched, untreated, control organisms
Corynebacterium = assay: microbe, parasite or virus in culture; format: cell-based; conditions: read-out: MIC90 of Standard Topical Agents
Method: as §2

[6] = test system: P. acnes strain (ATCC 6919); conditions: P. acnes ATCC 6919 passaged in the drug, level of the resistant culture sought/obtained
P. acnes [7] = assay: microbe, parasite or virus in culture; conditions: Cutibacterium acnes, read-out: MIC90 of Standard Topical Agents
Method: An in vitro assessment of antibiotic activity in XMP.629 and various known antibiotics against a representative panel of bacterial strains associated with acne was conducted. A broth dilution methodology was employed using guidelines established by National Committee for Clinical Laboratory Standards (NCCLS) for anaerobic organisms to establish an antibacterial profile for XMP.629. Assays to determine the minimal bactericidal concentrations (MBC) and minimal inhibitory concentration (MIC) were conducted for XMP.629 and other known antibiotics.
Inoculum from a representative panel of bacterial strains associated with acne, such as P. acnes, P. avidum, P. granulosum, and Staphylococcus epidermis was prepared by suspending approximately 5-10 isolated bacterial colonies in pre-reduced MicroScan® Inoculum Water (Dade Behring, Deerfield, Ill.), and growing the bacterial suspension to log phase (approximately 48 hrs). An inoculum of between 1-5×10^6/mL was achieved by adding 100 μL of the suspension to 25 mL Brain Heart Infusion Broth (BHI) (Anaerobe Systems, Morgan Hill, Calif.).
A stock solution of XMP.629 dissolved in water at a concentration of 4.0 mg/mL was prepared. Dilute solutions of XMP.629 at concentrations ranging from about 1.25 to about 160 μg/mL were made in either water or formulation buffer (130 mM sodium chloride, 0.2% P103 (poloxamer 333), and 0.10% EDTA, pH 7.3).
Control tubes containing only water or formulation buffer were prepared for each isolate. Initial growth controls were determined by removing 10 μL from the water control tube and diluting it by 100 fold. From this dilution, 10 μL was used for inoculation and for spreading over the surface onto Laked Blood Agar (LBA) (Anaerobe Systems, Morgan Hill, Calif.) plates. The tubes and plates were incubated in an anaerobic atmosphere at 37° C. for 48 h.

P. acnes [8] = assay: microbe, parasite or virus in culture; conditions: Cutibacterium acnes
Staphylococcus aureus [9] = assay: microbe, parasite or virus in culture
Enterococcus = format: cell-based
Method: as §2

Clostridium difficile = assay: microbe, parasite or virus in culture; conditions: Clostridioides difficile, read-out: Minimum Inhibitory Concentrations
Propionibacterium acnes = assay: microbe, parasite or virus in culture; conditions: Cutibacterium acnes, read-out: Minimum Inhibitory Concentrations
patients = conditions: clinical trials; cited from earlier work
skin of healthy subjects = assay: 21-day cumulative skin irritation study in healthy subjects; conditions: occlusive patches
Method: Subjects include males and females, ranging in age from 18 to 70 years old. Subjects are of any skin and race type.
Patches are prepared approximately 5-60 minutes before application to the subject and are applied on the backs of subjects at designated sites. Patches are held in place with appropriate adhesion tapes for 48 hours. Gels are applied to the same site on a given subject according to the randomization code three times per week. Subjects are instructed to keep the patches dry and are asked to avoid exercise that results in excessive sweating. Additionally, subjects are instructed to not expose the applied sites to sunlight for the duration of the study.
Every application is observed 48 hours later for signs of irritation or inflammation by a clinician or investigator. The clinician or investigator evaluates sign of skin reaction on each site for approximately 5-15 minutes after the patch is removed. Skin irritancy is rated according to the following commonly used 6-point scale: • 0=No sign of irritation • 0.5=Barely perceptible erythema • 1=Slight erythema • 2=Noticeable erythema with slight infiltration • 3=Erythema with marked edema • 4=Erythema with edema and blistering
Other signs of skin reaction to the tested gels are noted as adverse events and are recorded. A total of nine readings are performed during the study. […]

[10] = read-out: Minimum Inhibitory Concentrations, Pseudomonas aeruginosa 27853
[11] = read-out: Minimum Inhibitory Concentrations, Pseudomonas aeruginosa XS-65 (MDR)
[12] = BAA38|MRSA, read-out: Minimum Inhibitory Concentrations, Staphylococcus aureus BAA-38 (MRSA)
[13] = read-out: Minimum Inhibitory Concentrations, Staphylococcus aureus 19636

**Q.** With CO/N=C(\C(=O)N[C@@H]1C(=O)N2C(C(=O)O)=C(CSc3nc(=O)c(=O)[nH]n3C)CS[C@H]12)c1csc(N)n1 [Ceftriaxone] as the compound, how does the “MBC (antibiotic alone)” value (Staphylococcus aureus [1]) read?
**A.** >4 µg/mL

**Q.** What about the MIC (Pseudomonas aeruginosa; [10]) of the same compound?
**A.** 8 µg/mL (≈ 14.4 µM)

**Q.** What about the MIC (Pseudomonas aeruginosa; [11]) of the same compound?
**A.** 16 µg/mL (≈ 28.9 µM)

**Q.** And the “MBC (antibiotic alone)” value (E. coli)?
**A.** ≦4 μg/mL

**Q.** What about the MIC (Serratia marcescens) of the same compound?
**A.** 0.25 µg/mL (≈ 0.451 µM)

**Q.** What about the MIC (Klebsiella pneumoniae; Klebsiella pneumoniae 19645) of the same compound?
**A.** > 64 µg/mL

**Q.** And the MIC (Klebsiella pneumoniae; Klebsiella pneumoniae 29011)?
**A.** 0.13 µg/mL (≈ 0.234 µM)

**Q.** And the MIC (Bacteroides fragilis)?
**A.** 2.5 µg/mL (≈ 4.51 µM)

**Q.** What about the MIC (Proteus mirabilis) of the same compound?
**A.** ≤ 0.063 µg/mL

**Q.** What about the MIC (Escherichia coli; Escherichia coli 07:K1) of the same compound?
**A.** ≤ 0.25 µg/mL

**Q.** What about the MIC (Escherichia coli; Escherichia coli 0111:B4) of the same compound?
**A.** ≤ 0.063 µg/mL

**Q.** Which MIC (Streptococcus sobrinus) does the source give for O=C(O)c1cn(C2CC2)c2cc(N3CCNCC3)c(F)cc2c1=O [Ciprofloxacin] here?
**A.** 2 µg/mL (≈ 6.04 µM)

**Q.** And the MIC (Streptococcus mutans; Streptococcus mutans 25175)?
**A.** 2 µg/mL (≈ 6.04 µM)

**Q.** What about the MIC (Enterococcus hirae) of the same compound?
**A.** ≤ 1 µg/mL

**Q.** And the MIC (Macrococcus caseolyticus)?
**A.** ≤ 1 µg/mL

**Q.** What about the MIC (Pseudomonas aeruginosa; read-out: Minimum Inhibitory Concentrations, Pseudomonas aeruginosa 9027) of the same compound?
**A.** 0.13 µg/mL (≈ 0.392 µM)

**Q.** And the MIC (Pseudomonas aeruginosa; read-out: Minimum Inhibitory Concentrations, Pseudomonas aeruginosa 19660)?
**A.** 0.13 µg/mL (≈ 0.392 µM)

**Q.** And the MIC (Pseudomonas aeruginosa; [10])?
**A.** ≤ 1 µg/mL

**Q.** What about the MIC (Pseudomonas aeruginosa; [11]) of the same compound?
**A.** ≤ 1 µg/mL

**Q.** And the MIC (Serratia marcescens)?
**A.** 0.06 µg/mL (≈ 0.181 µM)

**Q.** And the MIC (Klebsiella pneumoniae; Klebsiella pneumoniae 19645)?
**A.** 0.13 µg/mL (≈ 0.392 µM)

**Q.** What about the MIC (Klebsiella pneumoniae; Klebsiella pneumoniae 29011) of the same compound?
**A.** ≤ 0.063 µg/mL

**Q.** And the MIC (Prevotella intermedia)?
**A.** ≤ 1 µg/mL

**Q.** What about the MIC (Proteus mirabilis) of the same compound?
**A.** ≤ 0.063 µg/mL

**Q.** What about the MIC (Salmonella ryphimurium) of the same compound?
**A.** ≤ 1 µg/mL

**Q.** What about the MIC (Porphyromonas gingivalis) of the same compound?
**A.** ≤ 1 µg/mL

**Q.** What about the MIC (Burkholderia cepacia) of the same compound?
**A.** 1 µg/mL (≈ 3.02 µM)

**Q.** And the MIC (Escherichia coli; Escherichia coli 07:K1)?
**A.** ≤ 0.25 µg/mL

**Q.** What about the MIC (Escherichia coli; Escherichia coli 0111:B4) of the same compound?
**A.** ≤ 0.063 µg/mL

**Q.** What about the MIC [2] of the same compound?
**A.** ≤ 1 µg/mL

**Q.** What about the MIC [3] of the same compound?
**A.** 64 µg/mL (≈ 193 µM)

**Q.** What about the MIC (Streptococcus pneumoniae) of the same compound?
**A.** ≤ 1 µg/mL

**Q.** For CC[C@H]1OC(=O)[C@H](C)[C@@H](O[C@H]2C[C@@](C)(OC)[C@@H](O)[C@H](C)O2)[C@H](C)[C@@H](O[C@@H]2O[C@H](C)C[C@H](N(C)C)[C@H]2O)[C@](C)(O)C[C@@H](C)C(=O)[C@H](C)[C@@H](O)[C@]1(C)O [Erythromycin], which MIC90 (S. aureus) is on record?
**A.** > 4 µg/mL

**Q.** What about the FIC (P. acnes [4]) of the same compound?
**A.** 2

**Q.** And the MIC [5]?
**A.** 4 µg/mL (≈ 5.45 µM)

**Q.** And the MIC90 (Corynebacterium)?
**A.** 0.5 µg/mL (≈ 0.681 µM)

**Q.** What about the MIC/MBC ([6]; listed as Erythromycin IR) of the same compound?
**A.** 64 µg/mL (≈ 87.2 µM)

**Q.** What about the MIC/MBC ([6]; listed as Erythromycin R) of the same compound?
**A.** >64 µg/mL

**Q.** What about the MIC90 (P. acnes [7]) of the same compound?
**A.** > 256 µg/mL

**Q.** What about the MIC (P. acnes [8]; ATCC6919, ATCC 6919 converted to an intermediate-erythromycin strain) of the same compound?
**A.** 64 µg/mL (≈ 87.2 µM)

**Q.** What about the MIC (P. acnes [8]; clindamycin/erythromycin sensitive strain UP2022) of the same compound?
**A.** < 1 µg/mL

**Q.** For Cc1onc(-c2ccccc2)c1C(=O)N[C@@H]1C(=O)N2[C@@H]1SC(C)(C)[C@@H]2C(=O)O [Oxacillin], which MIC (Staphylococcus aureus [9]; [12]) is on record?
**A.** 8 µg/mL (≈ 19.9 µM)

**Q.** And the MIC (Staphylococcus aureus [9]; [13])?
**A.** 1 µg/mL (≈ 2.49 µM)

**Q.** What about the “MBC (antibiotic alone)” value (Staphylococcus aureus [1]) of the same compound?
**A.** 1 µg/mL (≈ 2.49 µM)

**Q.** What about the MIC [3] of the same compound?
**A.** > 64 µg/mL

**Q.** Which MIC90 (S. aureus) does the source give for CN[C@H](CC(C)C)C(=O)N[C@H]1C(=O)N[C@@H](CC(N)=O)C(=O)N[C@H]2C(=O)N[C@H]3C(=O)N[C@H](C(=O)N[C@H](C(=O)O)c4cc(O)cc(O)c4-c4cc3ccc4O)[C@H](O)c3ccc(c(Cl)c3)Oc3cc2cc(c3O[C@@H]2O[C@H](CO)[C@@H](O)[C@H](O)[C@H]2O[C@H]2C[C@](C)(N)[C@H](O)[C@H](C)O2)Oc2ccc(cc2Cl)[C@H]1O [Vancomycin] here?
**A.** 4 µg/mL (≈ 2.76 µM)

**Q.** What about the MIC (Streptococcus sobrinus) of the same compound?
**A.** 1 µg/mL (≈ 0.69 µM)

**Q.** And the “MIC90 of Standard Topical Agents” value (Enterococcus)?
**A.** 1.0/NE

**Q.** What about the MIC (Streptococcus mutans; Streptococcus mutans) of the same compound?
**A.** 2 µg/mL (≈ 1.38 µM)

**Q.** And the MIC (Staphylococcus aureus [9]; [12])?
**A.** 1 µg/mL (≈ 0.69 µM)

**Q.** What about the MIC (Staphylococcus aureus [9]; read-out: Minimum Inhibitory Concentrations, Staphylococcus aureus 6258) of the same compound?
**A.** 2 µg/mL (≈ 1.38 µM)

**Q.** And the MIC (Staphylococcus aureus [9]; read-out: Minimum Inhibitory Concentrations, Staphylococcus aureus 11371)?
**A.** 1 µg/mL (≈ 0.69 µM)

**Q.** And the MIC (Staphylococcus aureus [9]; read-out: Minimum Inhibitory Concentrations, Staphylococcus aureus 12598)?
**A.** 1.25 µg/mL (≈ 0.863 µM)

**Q.** And the MIC (Staphylococcus aureus [9]; [13])?
**A.** ≤ 1 µg/mL

**Q.** What about the MIC90 (Corynebacterium) of the same compound?
**A.** 0.5 µg/mL (≈ 0.345 µM)

**Q.** And the MIC90 (P. acnes [7])?
**A.** 2 µg/mL (≈ 1.38 µM)

**Q.** What about the MIC [3] of the same compound?
**A.** > 64 µg/mL

**Q.** And the MIC (Clostridium difficile)?
**A.** 1 µg/mL (≈ 0.69 µM)

**Q.** And the MIC (Propionibacterium acnes)?
**A.** 2 µg/mL (≈ 1.38 µM)

**Q.** Which “patients reporting pruritus (itching), burning, stinging, and tingling” value (patients) does the source give for O=C(O)CCCCCCCC(=O)O [azelaic acid] here?
**A.** 1-5%

**Q.** Which results are given for CCCCCCCCCCCCOS(=O)(=O)[O-].[Na+] [sodium lauryl sulfate]?
**A.** cumulative irritation, conclusion (skin of healthy subjects): mild cumulative irritation; mean cumulative irritation score (skin of healthy subjects): 0.25

Source: patent US20050148495A1, “Methods and materials including for treating acne” (priority 2003, published 2005)
